Values quoted from earlier work as cited in Sander's compilation of Henry's law constants (doi:10.1016/0045-6535(88)90142-7).

experiment: Henry solubility constant Hcp at 298.15 K (mol/(m3 Pa)); conditions: reference: Ryan et al. (1988); cited value

Question: For `O=[N+]([O-])c1ccc(O)cc1` [4-nitrophenol], which “Henry solubility constant Hcp” value is on record?
Answer: The value was 1.6.

Question: Which “Henry solubility constant Hcp” value does the source give for `Cc1ccc(O)c(C)c1` [1-hydroxy-2,4-dimethylbenzene] here?
Answer: Its value is 0.54.

Question: Which “Henry solubility constant Hcp” value does the source give for `ClC=CCCl` [1,3-dichloropropene] here?
Answer: The value was 0.0081.

Question: With `CCCCOC(=O)c1ccccc1C(=O)OCc1ccccc1` [butyl benzyl phthalate] as the compound, how does the “Henry solubility constant Hcp” value read?
Answer: The value was 9.6.

Question: Which “Henry solubility constant Hcp” value does the source give for `CC(CCl)OC(C)CCl` (stereo not drawn) [bis-(2-chloroisopropyl) ether] here?
Answer: The value was 0.0086.

Question: Which “Henry solubility constant Hcp” value does the source give for `ClC1=C(Cl)[C@]2(Cl)[C@@H]3[C@@H]4C[C@@H]([C@H]5O[C@@H]45)[C@@H]3[C@@]1(Cl)C2(Cl)Cl` [dieldrin] here?
Answer: Its value is 1.3.

Question: With `Cc1cc(O)ccc1Cl` [4-chloro-3-methylphenol] as the compound, how does the “Henry solubility constant Hcp” value read?
Answer: The value was 4.

Question: With `ClC1=C(Cl)[C@]2(Cl)[C@@H]3[C@H]4C[C@H]([C@@H]5O[C@H]45)[C@@H]3[C@@]1(Cl)C2(Cl)Cl` [endrin] as the compound, how does the “Henry solubility constant Hcp” value read?
Answer: Its value is 24.

Question: Which “Henry solubility constant Hcp” value does the source give for `ClC(Cl)(Cl)Cl` [tetrachloromethane] here?
Answer: Its value is 0.00045.

Question: With `ClC(Cl)=C(c1ccc(Cl)cc1)c1ccc(Cl)cc1` [1,1-dichloro-2,2-bis-(4-chlorophenyl)-ethene] as the compound, how does the “Henry solubility constant Hcp” value read?
Answer: The value was 0.45.

Question: With `ClC(Cl)=C(Cl)Cl` [tetrachloroethene] as the compound, how does the “Henry solubility constant Hcp” value read?
Answer: Its value is 0.00063.

Question: For `CC(Cl)CCl` (stereo not drawn) [1,2-dichloropropane], which “Henry solubility constant Hcp” value is on record?
Answer: The value was 0.0034.

Question: Which “Henry solubility constant Hcp” value does the source give for `Oc1ccc(Cl)cc1Cl` [2,4-dichlorophenol] here?
Answer: Its value is 1.8.

Question: For `C=CC#N` [2-propenenitrile], which “Henry solubility constant Hcp” value is on record?
Answer: Its value is 0.11.

Question: For `O=[N+]([O-])c1ccc(O)c([N+](=O)[O-])c1` [2,4-dinitrophenol], which “Henry solubility constant Hcp” value is on record?
Answer: Its value is 15000.

Question: Which “Henry solubility constant Hcp” value does the source give for `ClCCOCCCl` [1,5-dichloro-3-oxapentane] here?
Answer: Its value is 8.6.

Question: For `Clc1ccc(C(c2ccc(Cl)cc2)C(Cl)Cl)cc1` [1,1-dichloro-2,2-bis-(4-chlorophenyl)-ethane], which “Henry solubility constant Hcp” value is on record?
Answer: Its value is 0.00081.

Question: Which “Henry solubility constant Hcp” value does the source give for `COC(=O)c1ccccc1C(=O)OC` [dimethyl phthalate] here?
Answer: The value was 50.

Question: For `Clc1ccc(C(c2ccc(Cl)cc2)C(Cl)(Cl)Cl)cc1` [1,1,1-trichloro-2,2-bis-(4-chlorophenyl)-ethane], which “Henry solubility constant Hcp” value is on record?
Answer: The value was 0.2.

Question: For `CCCCCCCCOC(=O)c1ccccc1C(=O)OCCCCCCCC` [dioctyl phthalate], which “Henry solubility constant Hcp” value is on record?
Answer: Its value is 34.

Question: With `O=[N+]([O-])c1ccccc1` [nitrobenzene] as the compound, how does the “Henry solubility constant Hcp” value read?
Answer: The value was 0.75.

Question: With `ClC1=C(Cl)C2(Cl)C3C4OC4C(Cl)C3C1(Cl)C2(Cl)Cl` (stereo not drawn) [heptachlorepoxide] as the compound, how does the “Henry solubility constant Hcp” value read?
Answer: Its value is 13.

Question: For `c1ccc2c(c1)ccc1ccccc12` [phenanthrene], which “Henry solubility constant Hcp” value is on record?
Answer: Its value is 0.25.

Question: For `ClCCl` [dichloromethane], which “Henry solubility constant Hcp” value is on record?
Answer: Its value is 0.0047.

Question: Which “Henry solubility constant Hcp” value does the source give for `Clc1ccc(Cl)cc1` [1,4-dichlorobenzene] here?
Answer: Its value is 0.0041.

Question: With `ClC(Cl)(Cl)C(Cl)(Cl)Cl` [hexachloroethane] as the compound, how does the “Henry solubility constant Hcp” value read?
Answer: The value was 0.00098.

Question: For `FC(F)(Cl)Cl` [dichlorodifluoromethane], which “Henry solubility constant Hcp” value is on record?
Answer: Its value is 6.4e-06.

Question: Which “Henry solubility constant Hcp” value does the source give for `Oc1ccccc1Cl` [2-hydroxychlorobenzene] here?
Answer: The value was 2.1.

Question: For `c1ccc2c(c1)-c1cccc3cccc-2c13` [benzo[jk]fluorene], which “Henry solubility constant Hcp” value is on record?
Answer: Its value is 1.

Question: For `ClCCOCOCCCl` [bis-(2-chloroethoxy)-methane], which “Henry solubility constant Hcp” value is on record?
Answer: The value was 37.

Question: For `c1ccc2cc3ccccc3cc2c1` [anthracene], which “Henry solubility constant Hcp” value is on record?
Answer: The value was 0.037.

Question: With `c1ccccc1` [benzene] as the compound, how does the “Henry solubility constant Hcp” value read?
Answer: The value was 0.0018.

Question: With `CCBr` [bromoethane] as the compound, how does the “Henry solubility constant Hcp” value read?
Answer: Its value is 9.2e-05.

Question: With `CCCCC(CC)COC(=O)c1ccccc1C(=O)OCC(CC)CCCC` (stereo not drawn) [bis(2-ethylhexyl)-phthalate] as the compound, how does the “Henry solubility constant Hcp” value read?
Answer: The value was 34.

Question: With `ClC(Cl)=C(Cl)C(Cl)=C(Cl)Cl` [hexachlorobutadiene] as the compound, how does the “Henry solubility constant Hcp” value read?
Answer: The value was 0.00094.

Question: Which “Henry solubility constant Hcp” value does the source give for `C1=Cc2cccc3cccc1c23` [acenaphthylene] here?
Answer: The value was 0.084.

Question: For `c1cc2c3c(cccc3c1)CC2` [acenaphthene], which “Henry solubility constant Hcp” value is on record?
Answer: The value was 0.04.

Question: With `ClC1=C(Cl)C(Cl)(Cl)C(Cl)=C1Cl` [hexachlorocyclopentadiene] as the compound, how does the “Henry solubility constant Hcp” value read?
Answer: Its value is 0.00027.

Question: With `Cc1ccccc1` [methylbenzene] as the compound, how does the “Henry solubility constant Hcp” value read?
Answer: Its value is 0.0014.

Question: Which “Henry solubility constant Hcp” value does the source give for `CCc1ccccc1` [ethylbenzene] here?
Answer: The value was 0.0016.

Question: With `ClC1=C(Cl)[C@]2(Cl)[C@H]3[C@H]([C@@H]4C=C[C@H]3C4)[C@@]1(Cl)C2(Cl)Cl` [aldrin] as the compound, how does the “Henry solubility constant Hcp” value read?
Answer: The value was 0.82.

Question: With `ClC(Cl)C(Cl)Cl` [1,1,2,2-tetrachloroethane] as the compound, how does the “Henry solubility constant Hcp” value read?
Answer: The value was 0.025.

Question: For `ClC1C(Cl)C(Cl)C(Cl)C(Cl)C1Cl` (stereo not drawn) [β-1,2,3,4,5,6-hexachlorocyclohexane], which “Henry solubility constant Hcp” value is on record?
Answer: The value was 0.67.

Question: Which “Henry solubility constant Hcp” value does the source give for `Clc1ccccc1` [chlorobenzene] here?
Answer: Its value is 0.0027.

Question: For `ClC1=C(Cl)[C@]2(Cl)C3C(Cl)C(Cl)CC3[C@@]1(Cl)C2(Cl)Cl` (stereo partly drawn) [chlordane], which “Henry solubility constant Hcp” value is on record?
Answer: Its value is 0.1.

Question: Which “Henry solubility constant Hcp” value does the source give for `c1ccc2c(c1)Cc1ccccc1-2` [2,3-benzindene] here?
Answer: The value was 0.084.

Question: With `O=[N+]([O-])c1ccccc1O` [2-nitrophenol] as the compound, how does the “Henry solubility constant Hcp” value read?
Answer: Its value is 1.3.

Question: For `c1ccc2ccccc2c1` [naphthalene], which “Henry solubility constant Hcp” value is on record?
Answer: The value was 0.02.

Question: Which “Henry solubility constant Hcp” value does the source give for `Clc1ccc2ccccc2c1` [2-chloronaphthalene] here?
Answer: Its value is 0.031.

Question: Which “Henry solubility constant Hcp” value does the source give for `CCCl` [chloroethane] here?
Answer: Its value is 0.00066.

Question: With `ClCC(Cl)Cl` [1,1,2-trichloroethane] as the compound, how does the “Henry solubility constant Hcp” value read?
Answer: The value was 0.0013.

Question: Which “Henry solubility constant Hcp” value does the source give for `BrC(Br)Br` [tribromomethane] here?
Answer: Its value is 0.017.

Question: For `c1ccc2c(c1)cc1ccc3cccc4ccc2c1c34` [benzo[a]pyrene], which “Henry solubility constant Hcp” value is on record?
Answer: Its value is 0.00082.

Question: For `ClCOCCl` [bis-(chloromethyl) ether], which “Henry solubility constant Hcp” value is on record?
Answer: The value was 0.0047.

Question: With `C=C(Cl)Cl` [1,1-dichloroethene] as the compound, how does the “Henry solubility constant Hcp” value read?
Answer: Its value is 0.0022.

Question: With `c1ccc2c(c1)ccc1c3ccccc3ccc21` [chrysene] as the compound, how does the “Henry solubility constant Hcp” value read?
Answer: Its value is 0.0046.

Question: For `Clc1cccc(Cl)c1` [1,3-dichlorobenzene], which “Henry solubility constant Hcp” value is on record?
Answer: Its value is 0.0037.

Question: With `C=CC=O` [propenal] as the compound, how does the “Henry solubility constant Hcp” value read?
Answer: Its value is 0.14.

Question: For `ClC=C(Cl)Cl` [trichloroethene], which “Henry solubility constant Hcp” value is on record?
Answer: Its value is 0.0011.

Question: With `CCCCOC(=O)c1ccccc1C(=O)OCCCC` [dibutyl phthalate] as the compound, how does the “Henry solubility constant Hcp” value read?
Answer: The value was 34.

Question: With `CC(Cl)(Cl)Cl` [1,1,1-trichloroethane] as the compound, how does the “Henry solubility constant Hcp” value read?
Answer: The value was 0.00031.

Question: For `C=CCl` [chloroethene], which “Henry solubility constant Hcp” value is on record?
Answer: Its value is 0.00065.

Question: For `ClC1=C(Cl)C2(Cl)C3C(Cl)C=CC3C1(Cl)C2(Cl)Cl` (stereo not drawn) [heptachlor], which “Henry solubility constant Hcp” value is on record?
Answer: Its value is 0.0065.
